In patent US20030149000A1, “Method for the treatment of disorders associated with apoptosis using N-heterocyclic glyoxylamide compounds” (Shionogi & Co., Ltd., priority 1998, published 2003):

Assays:
[1] = tested on: hPLA2-II-induced neuronal cell death; assay: MTT reduction assay of neuronal survival after hPLA2-II treatment; assay type: cell-based, Sprague-Dawley rat
Experimental: (§1) According to a method disclosed in Neurosci. Lett. 203, 175-178 Ueda K. et al, Neuronal cultures were prepared from cerebral cortex of 19-day-old Sprague-Dawley rat embryos. The cerebral cortices were dissociated in isotonic buffer (137 mM NaCl, 5.4 mM KCl, 0.17 mM Na2HPO4, 0.22 mM KH2PO4, 5.5 mM Glucose, 59 mM Sucrose; volume of each buffer is 25 ml) with 4 mg/ml trypsin and 0.4 mg/ml deoxyribonuclease I. Cells were plated at a density of 2.5×10^5 cells/cm^2 on poly-L-lysine coated dishes in conditioning medium, Leibovitz's L-15 medium supplemented with 5% fetal calf serum and 5% horse serum. Culture medium was exchanged for conditioning medium containing 0.1 mM arabinosylcytosine C on day 1 after plating. Cultured neurons were used for the experiments on day 2 of culture.
For assessment of neurotoxicity of hPLA2-II according to a method disclosed in Neurosci. […] Absorbance at 570 nm were measured with a microplate reader.
[…] MTT reducing activity was determined 48 hr after hPLA2-II-treatment.
At the indicated time after the treatment with hPLA2-II (1 μM), the compound prepared in Example 2 (final concentration=10 μM) was added to the culture medium. Data are expressed as mean±SEM values (n=4). *P<0.05, **P<0.01, compared with vehicle-treated conditions by ANOVA followed by Dunnett's test. […]

[2] = rats after transient middle cerebral artery occlusion; cited from earlier work
cortical neurons = assay: Ultrastructural changes in cortical neurons after hPLA2-II treatment (electron microscope); assay type: cell-based, Sprague-Dawley rat; settings: treated for 48 h
Experimental: as §1
Cells were treated with hPLA2-II for 48 h, and fixed in situ in 1-5% (especially 2.5%) glutaraldehyde in PBS for 2 h at 4° C. and post-fixed in 0.5-2% (especially 1% osmium tetraoxide). To increase contrast, cells were double-fixed in saturated thiocarbohydrazide-osmium. Afterwards, samples were dehydrated using a graded series of ethanol from 50-100%. Tissue culture dishes were embedded in Araldite or Epoxy resin (especially Epon 812), cured in vacuo for 48 h at 60-70° C. and sectioned. […]

## CCc1c(C(=O)C(N)=O)c2c(OCC(=O)O)cccc2n1Cc1ccccc1 [Example 1, [[3-(2-Amino-1,2-dioxoethyl)-2-ethyl-1-(phenylmethyl)-1H-indol-4-yl]oxy]acetic acid]
[1]; 3 μM hPLA2-II, 48 well-cultured neuron, FIG. 4
  suppression of hPLA2-II-induced neuronal death (MTT reducing activity), co-treatment: suppressed neuronal death completely depending on its concentration

## CCc1c(C(=O)C(N)=O)c2c(OCC(=O)O)cccn2c1Cc1ccccc1-c1ccccc1 [Example 2, (8-(Carboxymethyloxy)-2-ethyl-3-(o-phenylbenzyl)indolizin-1-yl)glyoxylamide]
[1]; 1 μM hPLA2-II, compound added at 10 μM final concentration at indicated time after hPLA2-II, FIG. 3
  time after hPLA2-II treatment within which post-treatment with compound suppressed neuronal death completely: ≤ 10 h

## CCN(CC)CCCC(C)Nc1c2ccc(Cl)cc2nc2ccc(OC)cc12 (centres unmarked) [quinacrine]
[2]
  infarct-size: reduces infarct-size

B1: hPLA2-II: human PLA2-II, used to induce neuronal death in cultured cortical neurons (protein, UniProt P14555 21-144, looked up)
Phospholipase A2, membrane …: NLVNFHRMIKLTTGKEAALSYGFYGCHCGVGGRGSPKDATDRCCVTHDCCYKRLEKRGCGTKFLSYKFSNSGSRITCAKQDSCRSQLCECDKAAATCFARNKTTYNKKYQYYSNKHCRGSTPRC
Cortical neurons; compared with untreated neurons
  morphology of neurons (cell bodies, neurites) after hPLA2-II treatment: shrank cell bodies and lost their neurites
Cortical neurons; electron microscope, compared with untreated cells, FIG. 1B
  ultrastructural changes of neurons after hPLA2-II treatment: condensation and fragmentation of nuclear chromatin, lost of intracellular organelle other than mitochondria and blebbing of plasma membranes
